Tests used:
[1] = tested on: M. tuberculosis; assay type: cell-based, Mycobacterium tuberculosis (ATCC 27294); conditions: for MEC (minimum effective concentration) / MEC for the 10-fold boosting of ethionamide / ethionamide boosting ability in M. tuberculosis culture: in the presence of 1/10 of the MIC of ethionamide; for MEC (minimum effective concentration): mean ± standard deviation of two independent replicates; for fold drop in potency (MEC) on addition of an extra methylene unit to the linker: 15 relative to 14, 29 relative to 28; for fold improvement in MEC on the starting fragment 1: relative to fragment 1
[2] = tested on: M. tuberculosis infected murine macrophages; assay: Macrophage (intracellular) assay; assay type: cell-based, M. tuberculosis H37Rv-GFP in Raw264.7 macrophages; conditions: for concentrations at which intrinsic bactericidal activity against M. tuberculosis is seen: compound alone, without ethionamide; for IC50 / EC50: Mycobacterium tuberculosis, Macrophage; for IC50: in the absence of ethionamide, read-out: IC50, intrinsic bactericidal effect; for EC50: in the presence of 1/10 of the MIC of ethionamide
[3] = biological target: EthR (Mycobacterium tuberculosis, UniProt P9WMC1); assay: Isothermal titration calorimetry (ITC) binding to EthR; conditions: n = 1, one site binding model
Procedure: Isothermal titration calorimetry (ITC)
An aqueous solution of the fragment to be tested (1 mM) was prepared containing NaCl (300 mM), Tris.HCl (20 mM, pH = 8.0), d6-DMSO (10% v/v) and glycerol (to match the 10% v/v glycerol content in the EthR stock solution). A separate aqueous solution of EthR (50 μM) containing NaCl (300 mM), Tris.HCl (20 mM, pH = 8.0) and DMSO-d6 (10% v/v) was prepared and placed in the sample cell of a MicroCal iTC200 microcalorimeter (GE Healthcare). The fragment solution was then titrated to the EthR solution over 19 or 39 injections (first injection of 0.4 μl and subsequent injections of 2.0 μL or 1.0 μL). Data was fitted to a one site binding model using Origin software.
Figure S10 ITC trace for cyclopentylmethyl pyrrolidine-1-carboxylate 2 binding to EthR.
(1 picture or pasted object on this page, not shown here)

[4] = tested on: M. tuberculosis; design: method as in PMID 24313835; conditions: cited from earlier work

Chain of EthR (P9WMC1 whole entry, looked up): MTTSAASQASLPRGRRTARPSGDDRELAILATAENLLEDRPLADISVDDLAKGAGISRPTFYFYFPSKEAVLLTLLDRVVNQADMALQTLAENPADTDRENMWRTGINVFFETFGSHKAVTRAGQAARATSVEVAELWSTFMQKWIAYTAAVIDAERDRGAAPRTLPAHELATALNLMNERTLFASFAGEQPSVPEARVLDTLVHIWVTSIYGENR

CCCCC(=O)N1CCCC1 [Compound 18]
MEC (minimum effective concentration) [1]: > 50 µM

O=C(OCC1CCCCC1)N1CCCC1 [Compound 25]
MEC (minimum effective concentration) [1]: 1.6 ± 0.9 µM | ethionamide boosting in the macrophage assay [2]: significant boosting of ethionamide | concentrations at which intrinsic bactericidal activity against M. tuberculosis is seen [2]: higher than 1 μM

CN(C)C(=O)OCC1CCCC1 [Compound 26]
MEC (minimum effective concentration) [1]: 6.3 ± 3.6 µM

O=C(NCC1CCCC1)C1CCCC1 [Compound 4]
Kd [3]: 11 µM | MEC (minimum effective concentration) [1]: >50 µM

O=C(CCCCC1CCCCC1)N1CCCC1 [Compound 15]
fold drop in potency (MEC) on addition of an extra methylene unit to the linker [1]: 4 fold | MEC (minimum effective concentration) [1]: 1.6 ± 0.8 µM

O=C(CCCC1CCCCC1)N1CCCC1 [Compound 14]
MEC for the 10-fold boosting of ethionamide [1]: 400 nM | MEC (minimum effective concentration) [1]: 0.4 ± 0.2 µM | fold improvement in MEC on the starting fragment 1 [1]: approximately 7 fold | IC50 [2]: ~1000 nM | EC50 [2]: 40 nM

O=C(NCC1CCOC1)N1CCCC1 (centres unmarked) [Compound 10]
MEC (minimum effective concentration) [1]: >50 µM

O=C(OCCCCC1CCCCC1)N1CCCC1 [Compound 29]
fold drop in potency (MEC) on addition of an extra methylene unit to the linker [1]: roughly 16 fold | MEC (minimum effective concentration) [1]: 6.3 ± 3.6 µM

O=C(/C=C/c1ccoc1)N1CCCC1 [Compound 7]
Kd [3]: 20 µM | MEC (minimum effective concentration) [1]: >50 µM

O=C(OCC1CCCC1)N1CCCC1 [Compound 2, cyclopentylmethyl pyrrolidine-1-carboxylate]
Kd [3]: 15 µM | MEC (minimum effective concentration) [1]: 19 ± 7.5 µM

O=S(=O)(CCC1CCCC1)N1CCCC1 [Compound 5]
Kd [3]: 16 µM | MEC (minimum effective concentration) [1]: >50 µM

O=C(OCC1CCC1)N1CCCC1 [Compound 24]
MEC (minimum effective concentration) [1]: 3.1 ± 1.8 µM

O=C(CC12CC3CC(CC(C3)C1)C2)N1CCCC1 [Compound 17]
fold increase in ethionamide boosting ability ([1]; 17 relative to the inactive amide 16): over 30 fold | MEC (minimum effective concentration) [1]: 1.6 ± 0.8 µM

O=S(=O)(NCC1CCCC1)N1CCCC1 [Compound 6]
Kd [3]: 20 µM | MEC (minimum effective concentration) [1]: >50 µM

CC(C)(C)OC(=O)N1CCCC1 [Compound 30, Boc-pyrrolidine]
MEC (minimum effective concentration) [1]: > 50 µM

CCc1cc(C(N)=S)ccn1 [ethionamide]
MIC of ethionamide ([4]; ethionamide alone): 15 µM

O=C(NCc1ccoc1)N1CCCC1 [Compound 9]
MEC (minimum effective concentration) [1]: >50 µM

O=C(NCC1CCCC1)N1CCCC1 [Compound 3]
Kd [3]: 6 µM | MEC (minimum effective concentration) [1]: >50 µM

O=C(OCCC1CCCC1)N1CCCC1 [Compound 22]
MEC (minimum effective concentration) [1]: 1.6 ± 0.9 µM | ethionamide boosting in the macrophage assay [2]: significant boosting of ethionamide | concentrations at which intrinsic bactericidal activity against M. tuberculosis is seen [2]: higher than 1 μM

O=C(CCC1CCCC1)N1CCCC1 [Compound 1]
ethionamide boosting in the macrophage assay [2]: significant boosting of ethionamide | concentrations at which intrinsic bactericidal activity against M. tuberculosis is seen [2]: higher than 1 μM | MIC of ethionamide in the presence of fragment 1 ([4]; fragment 1 at a concentration of 1 μM): approximately 2 μM

O=C(OCC1CCCC1)N1CCCCCC1 [Compound 21]
ethionamide boosting ability in M. tuberculosis culture [1]: loss of ethionamide boosting ability | MEC (minimum effective concentration) [1]: > 50 µM

O=C(OCC1CCCC1)N1CCC1 [Compound 27]
MEC (minimum effective concentration) [1]: 13 ± 7.2 µM

O=C(CCC1CCCCC1)N1CCCC1 [Compound 13]
MEC (minimum effective concentration) [1]: 0.8 ± 0.5 µM | fold improvement in MEC on the starting fragment 1 [1]: approximately 4 fold

O=C(N1CCCC1)C12CC3CC(CC(C3)C1)C2 [Compound 16]
MEC (minimum effective concentration) [1]: > 50 µM

O=C(OCC1CC1)N1CCCC1 [Compound 23]
MEC (minimum effective concentration) [1]: 3.1 ± 1.8 µM | ethionamide boosting in the macrophage assay [2]: significant boosting of ethionamide

O=C(CCc1ccoc1)N1CCCC1 [Compound 8]
Kd [3]: 22 µM | MEC (minimum effective concentration) [1]: >50 µM

CCCC(=O)N1CCCC1 [Compound 19]
MEC (minimum effective concentration) [1]: > 50 µM

O=C(C1CCCC1)N1CCCC1 [Compound 11]
MEC (minimum effective concentration) [1]: > 50 µM

O=C(OCCCC1CCCC1)N1CCCC1 [Compound 28]
MEC for the 10-fold boosting of ethionamide [1]: 400 nM | MEC (minimum effective concentration) [1]: 0.4 ± 0.2 µM | fold improvement in MEC on the starting fragment 1 [1]: roughly 7 fold | IC50 [2]: ~1000 nM | EC50 [2]: 50 nM

O=C(OCC1CCCC1)N1CCCCC1 [Compound 20]
ethionamide boosting ability in M. tuberculosis culture [1]: loss of ethionamide boosting ability | MEC (minimum effective concentration) [1]: > 50 µM

O=C(CC1CCCC1)N1CCCC1 [Compound 12]
MEC (minimum effective concentration) [1]: 19 ± 7.5 µM

Reference: article PMC5474694, “Fragment-Sized EthR Inhibitors Exhibit Exceptionally Strong Ethionamide Boosting Effect in Whole-Cell Mycobacterium tuberculosis Assays” (ACS Chemical Biology, 2017)
